{
  "source": "the kinase profiling compilation of Christmann-Franck et al. (2016)",
  "experiment_in_all_cases": "KINOMEscan competition binding",
  "settings_in_all_cases": "compound 1.0 µM",
  "key": {"[1]": {"test_system": "FLT3 (human), P36888 [K663Q]"}, "MAPKAPK2 (human)": {"biological_target": "MAPKAPK2 (human) (UniProt P49137)"}, "SRPK1 (human)": {"biological_target": "SRPK1 (human) (UniProt Q96SB4)"}, "FGR (human)": {"biological_target": "FGR (human) (UniProt P09769)", "sequence (P09769 whole entry, looked up)": "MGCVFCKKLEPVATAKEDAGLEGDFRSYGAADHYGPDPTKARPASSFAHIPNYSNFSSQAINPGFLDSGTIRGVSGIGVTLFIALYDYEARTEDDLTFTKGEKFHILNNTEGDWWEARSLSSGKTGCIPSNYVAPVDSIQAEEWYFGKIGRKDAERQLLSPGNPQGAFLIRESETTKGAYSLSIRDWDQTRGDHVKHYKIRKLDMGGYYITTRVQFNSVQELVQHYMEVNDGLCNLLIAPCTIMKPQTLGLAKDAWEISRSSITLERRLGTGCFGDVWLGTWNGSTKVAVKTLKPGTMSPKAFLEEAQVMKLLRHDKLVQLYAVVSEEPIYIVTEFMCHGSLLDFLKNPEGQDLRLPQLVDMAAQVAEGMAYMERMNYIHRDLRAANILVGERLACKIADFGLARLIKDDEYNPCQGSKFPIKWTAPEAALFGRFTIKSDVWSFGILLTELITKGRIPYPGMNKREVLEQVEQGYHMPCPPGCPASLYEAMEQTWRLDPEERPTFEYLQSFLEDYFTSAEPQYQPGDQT"}, "HUNK (human)": {"biological_target": "HUNK (human) (UniProt P57058)"}, "ZAP70 (human)": {"biological_target": "ZAP70 (human) (UniProt P43403)"}, "[2]": {"test_system": "EGFR (human), P00533 [T790M]"}, "MAP3K15 (human)": {"biological_target": "MAP3K15 (human) (UniProt Q6ZN16)"}, "[3]": {"test_system": "KIT (human), P10721 [V559D]"}, "PKN2 (human)": {"biological_target": "PKN2 (human) (UniProt Q16513)"}, "GSK3A (human)": {"biological_target": "GSK3A (human) (UniProt P49840)"}, "MAP4K1 (human)": {"biological_target": "MAP4K1 (human) (UniProt Q92918)"}, "[4]": {"test_system": "KIT (human), P10721 [V559D/V654A]"}, "CHEK1 (human)": {"biological_target": "CHEK1 (human) (UniProt O14757)"}, "CASK (human)": {"biological_target": "CASK (human) (UniProt O14936)"}, "IRAK1 (human)": {"biological_target": "IRAK1 (human) (UniProt P51617)"}, "RET (human)": {"biological_target": "RET (human) (UniProt P07949)"}, "MARK2 (human)": {"biological_target": "MARK2 (human) (UniProt Q7KZI7)"}, "CDKL2 (human)": {"biological_target": "CDKL2 (human) (UniProt Q92772)"}, "FLT4 (human)": {"biological_target": "FLT4 (human) (UniProt P35916)", "sequence (P35916 whole entry, looked up)": "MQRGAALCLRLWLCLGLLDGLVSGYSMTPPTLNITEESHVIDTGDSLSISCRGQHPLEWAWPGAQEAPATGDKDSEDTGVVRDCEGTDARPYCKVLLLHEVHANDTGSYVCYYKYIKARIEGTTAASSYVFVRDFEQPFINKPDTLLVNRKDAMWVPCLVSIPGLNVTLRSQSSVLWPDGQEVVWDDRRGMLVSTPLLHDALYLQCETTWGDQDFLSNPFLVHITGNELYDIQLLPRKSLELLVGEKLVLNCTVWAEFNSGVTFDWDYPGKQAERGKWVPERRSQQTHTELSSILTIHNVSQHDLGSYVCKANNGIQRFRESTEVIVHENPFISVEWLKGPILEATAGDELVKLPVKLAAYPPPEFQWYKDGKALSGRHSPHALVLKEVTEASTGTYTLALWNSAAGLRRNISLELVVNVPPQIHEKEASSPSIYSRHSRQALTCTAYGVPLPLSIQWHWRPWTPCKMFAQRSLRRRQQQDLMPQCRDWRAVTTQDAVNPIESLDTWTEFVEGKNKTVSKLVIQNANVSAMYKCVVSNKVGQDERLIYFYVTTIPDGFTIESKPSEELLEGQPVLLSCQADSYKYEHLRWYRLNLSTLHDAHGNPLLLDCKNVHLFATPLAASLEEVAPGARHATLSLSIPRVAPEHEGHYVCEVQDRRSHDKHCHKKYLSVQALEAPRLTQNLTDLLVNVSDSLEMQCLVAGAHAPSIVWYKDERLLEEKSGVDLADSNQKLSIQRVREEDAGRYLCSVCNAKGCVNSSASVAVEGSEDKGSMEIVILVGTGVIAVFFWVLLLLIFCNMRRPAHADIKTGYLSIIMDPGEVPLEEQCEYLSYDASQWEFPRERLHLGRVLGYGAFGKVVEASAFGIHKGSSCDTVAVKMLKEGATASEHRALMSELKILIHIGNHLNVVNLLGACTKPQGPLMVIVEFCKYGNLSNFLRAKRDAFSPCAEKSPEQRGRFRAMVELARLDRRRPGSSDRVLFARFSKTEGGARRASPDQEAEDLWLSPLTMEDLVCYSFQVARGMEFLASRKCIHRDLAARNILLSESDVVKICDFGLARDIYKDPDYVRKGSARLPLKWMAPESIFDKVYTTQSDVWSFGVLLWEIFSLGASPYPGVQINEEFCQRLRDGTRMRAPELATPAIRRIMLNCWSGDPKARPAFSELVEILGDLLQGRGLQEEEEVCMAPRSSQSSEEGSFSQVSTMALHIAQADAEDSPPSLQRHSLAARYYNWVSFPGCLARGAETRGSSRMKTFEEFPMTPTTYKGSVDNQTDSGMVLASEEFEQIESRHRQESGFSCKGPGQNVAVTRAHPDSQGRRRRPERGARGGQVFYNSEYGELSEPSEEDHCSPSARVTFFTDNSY"}, "[5]": {"test_system": "EGFR (human), P00533 [G719C]"}, "YES1 (human)": {"biological_target": "YES1 (human) (UniProt P07947)", "sequence (P07947 whole entry, looked up)": "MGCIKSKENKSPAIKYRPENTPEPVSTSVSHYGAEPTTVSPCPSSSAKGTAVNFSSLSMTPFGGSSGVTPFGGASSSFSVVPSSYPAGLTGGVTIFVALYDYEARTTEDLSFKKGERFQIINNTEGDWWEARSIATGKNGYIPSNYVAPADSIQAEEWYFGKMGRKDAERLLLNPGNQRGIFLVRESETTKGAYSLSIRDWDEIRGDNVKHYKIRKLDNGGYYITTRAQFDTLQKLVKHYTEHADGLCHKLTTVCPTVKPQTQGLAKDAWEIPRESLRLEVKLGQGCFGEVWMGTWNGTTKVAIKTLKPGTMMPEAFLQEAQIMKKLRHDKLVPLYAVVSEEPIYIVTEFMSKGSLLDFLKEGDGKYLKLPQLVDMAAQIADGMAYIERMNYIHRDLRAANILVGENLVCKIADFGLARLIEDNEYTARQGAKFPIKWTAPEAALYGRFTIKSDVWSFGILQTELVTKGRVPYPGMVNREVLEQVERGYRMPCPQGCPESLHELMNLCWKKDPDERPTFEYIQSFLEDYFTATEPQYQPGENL"}, "ROCK2 (human)": {"biological_target": "ROCK2 (human) (UniProt O75116)"}, "LYN (human)": {"biological_target": "LYN (human) (UniProt P07948)"}, "RIOK3 (human)": {"biological_target": "RIOK3 (human) (UniProt O14730)"}, "MAPK1 (human)": {"biological_target": "MAPK1 (human) (UniProt P28482)"}, "CSNK2A1 (human)": {"biological_target": "CSNK2A1 (human) (UniProt P68400)", "sequence (P68400 whole entry, looked up)": "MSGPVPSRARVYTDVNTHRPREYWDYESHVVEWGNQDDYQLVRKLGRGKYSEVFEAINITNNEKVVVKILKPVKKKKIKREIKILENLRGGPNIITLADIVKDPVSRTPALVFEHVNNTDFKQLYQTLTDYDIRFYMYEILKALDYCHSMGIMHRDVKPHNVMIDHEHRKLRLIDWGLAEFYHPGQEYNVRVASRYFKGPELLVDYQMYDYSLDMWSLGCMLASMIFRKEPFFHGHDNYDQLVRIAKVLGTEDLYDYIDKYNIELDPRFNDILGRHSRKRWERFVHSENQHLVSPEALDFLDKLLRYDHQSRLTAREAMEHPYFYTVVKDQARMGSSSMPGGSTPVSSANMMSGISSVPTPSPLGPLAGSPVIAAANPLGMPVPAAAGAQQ"}, "STK38L (human)": {"biological_target": "STK38L (human) (UniProt Q9Y2H1)"}, "CLK3 (human)": {"biological_target": "CLK3 (human) (UniProt P49761)"}, "CAMK4 (human)": {"biological_target": "CAMK4 (human) (UniProt Q16566)"}, "CDK17 (human)": {"biological_target": "CDK17 (human) (UniProt Q00537)"}, "PRKAA2 (human)": {"biological_target": "PRKAA2 (human) (UniProt P54646)"}, "CDK3 (human)": {"biological_target": "CDK3 (human) (UniProt Q00526)"}, "CDK4 CCND1 (human)": {"biological_target": "CDK4 CCND1 (human) (UniProt P11802+P24385)"}, "STK3 (human)": {"biological_target": "STK3 (human) (UniProt Q13188)"}, "IGF1R (human)": {"biological_target": "IGF1R (human) (UniProt P08069)", "sequence (P08069 whole entry, looked up)": "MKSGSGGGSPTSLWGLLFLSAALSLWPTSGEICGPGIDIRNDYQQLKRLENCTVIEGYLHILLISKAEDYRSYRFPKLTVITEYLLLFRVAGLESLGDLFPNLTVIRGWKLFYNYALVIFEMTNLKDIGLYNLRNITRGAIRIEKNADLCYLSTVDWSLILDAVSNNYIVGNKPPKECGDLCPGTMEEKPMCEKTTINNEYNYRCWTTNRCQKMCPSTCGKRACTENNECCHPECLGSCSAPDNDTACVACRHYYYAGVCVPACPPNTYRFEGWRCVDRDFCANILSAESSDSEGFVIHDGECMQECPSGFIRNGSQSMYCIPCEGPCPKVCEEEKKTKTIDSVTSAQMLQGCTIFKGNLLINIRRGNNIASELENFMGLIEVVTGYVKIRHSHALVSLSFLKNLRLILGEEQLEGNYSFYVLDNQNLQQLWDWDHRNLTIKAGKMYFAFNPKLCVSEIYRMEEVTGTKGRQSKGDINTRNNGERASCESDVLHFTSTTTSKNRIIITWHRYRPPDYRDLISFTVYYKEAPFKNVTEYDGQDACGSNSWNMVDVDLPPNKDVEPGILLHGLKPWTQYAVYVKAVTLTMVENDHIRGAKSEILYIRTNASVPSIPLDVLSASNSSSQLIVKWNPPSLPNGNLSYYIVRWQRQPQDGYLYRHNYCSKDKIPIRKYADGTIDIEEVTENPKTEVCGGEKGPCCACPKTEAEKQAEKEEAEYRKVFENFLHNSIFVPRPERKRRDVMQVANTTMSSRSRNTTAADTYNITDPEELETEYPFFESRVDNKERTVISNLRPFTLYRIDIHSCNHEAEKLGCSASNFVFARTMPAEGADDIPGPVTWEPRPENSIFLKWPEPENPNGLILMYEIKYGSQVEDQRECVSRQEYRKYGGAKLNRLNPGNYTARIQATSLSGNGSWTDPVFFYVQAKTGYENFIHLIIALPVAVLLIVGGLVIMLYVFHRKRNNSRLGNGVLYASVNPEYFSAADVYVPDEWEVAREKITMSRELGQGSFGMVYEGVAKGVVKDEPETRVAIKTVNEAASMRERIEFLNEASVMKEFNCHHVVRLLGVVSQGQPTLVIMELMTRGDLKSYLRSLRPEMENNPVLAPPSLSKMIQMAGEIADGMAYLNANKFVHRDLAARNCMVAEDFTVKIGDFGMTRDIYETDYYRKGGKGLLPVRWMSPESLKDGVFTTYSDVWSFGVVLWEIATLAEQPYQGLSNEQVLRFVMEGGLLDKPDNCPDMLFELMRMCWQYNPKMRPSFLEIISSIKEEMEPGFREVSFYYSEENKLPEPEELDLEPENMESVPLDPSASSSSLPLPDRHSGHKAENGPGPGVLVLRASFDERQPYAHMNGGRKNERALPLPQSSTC"}, "PLK3 (human)": {"biological_target": "PLK3 (human) (UniProt Q9H4B4)"}, "ACVR1B (human)": {"biological_target": "ACVR1B (human) (UniProt P36896)", "sequence (P36896 whole entry, looked up)": "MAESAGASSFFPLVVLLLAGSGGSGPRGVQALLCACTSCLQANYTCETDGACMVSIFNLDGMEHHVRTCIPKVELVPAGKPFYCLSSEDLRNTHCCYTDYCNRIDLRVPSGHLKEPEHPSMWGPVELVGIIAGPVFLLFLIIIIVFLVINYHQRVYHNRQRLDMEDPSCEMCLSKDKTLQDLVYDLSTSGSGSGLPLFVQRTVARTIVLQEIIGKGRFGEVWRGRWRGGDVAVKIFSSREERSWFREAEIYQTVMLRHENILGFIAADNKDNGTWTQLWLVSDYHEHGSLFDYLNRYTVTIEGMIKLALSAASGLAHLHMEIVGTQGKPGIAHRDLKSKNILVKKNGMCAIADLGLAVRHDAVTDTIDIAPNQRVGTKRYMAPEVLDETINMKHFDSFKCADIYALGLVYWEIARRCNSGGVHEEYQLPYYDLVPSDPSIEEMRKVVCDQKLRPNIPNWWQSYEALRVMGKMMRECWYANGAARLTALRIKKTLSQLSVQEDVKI"}, "MAP2K3 (human)": {"biological_target": "MAP2K3 (human) (UniProt P46734)", "sequence (P46734 whole entry, looked up)": "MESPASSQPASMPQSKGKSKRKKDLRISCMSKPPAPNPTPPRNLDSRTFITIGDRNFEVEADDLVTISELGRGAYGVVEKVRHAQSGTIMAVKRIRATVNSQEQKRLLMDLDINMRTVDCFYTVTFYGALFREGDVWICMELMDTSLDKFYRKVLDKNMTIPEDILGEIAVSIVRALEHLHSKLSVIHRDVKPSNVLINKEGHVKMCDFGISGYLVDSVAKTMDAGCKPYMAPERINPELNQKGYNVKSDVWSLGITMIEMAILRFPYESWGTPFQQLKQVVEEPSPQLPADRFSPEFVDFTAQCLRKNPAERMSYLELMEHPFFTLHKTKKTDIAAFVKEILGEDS"}, "MAP2K1 (human)": {"biological_target": "MAP2K1 (human) (UniProt Q02750)"}, "STK17B (human)": {"biological_target": "STK17B (human) (UniProt O94768)"}, "PAK2 (human)": {"biological_target": "PAK2 (human) (UniProt Q13177)"}, "ULK1 (human)": {"biological_target": "ULK1 (human) (UniProt O75385)"}},
  "data": [
    {"smiles": "COCCNCCCn1c(C(=O)CF)c(-c2ccc(C)cc2)c2c(N)ncnc21", "values": [
      {"measurement": "kinase still bound, per cent of control", "setting": "[1]", "value": 100, "unit": "%"},
      {"measurement": "kinase still bound, per cent of control", "setting": "MAPKAPK2 (human)", "value": 97, "unit": "%"},
      {"measurement": "kinase still bound, per cent of control", "setting": "SRPK1 (human)", "value": 100, "unit": "%"},
      {"measurement": "kinase still bound, per cent of control", "setting": "FGR (human)", "value": 93, "unit": "%"},
      {"measurement": "kinase still bound, per cent of control", "setting": "HUNK (human)", "value": 100, "unit": "%"},
      {"measurement": "kinase still bound, per cent of control", "setting": "ZAP70 (human)", "value": 85, "unit": "%"},
      {"measurement": "kinase still bound, per cent of control", "setting": "[2]", "value": 100, "unit": "%"},
      {"measurement": "kinase still bound, per cent of control", "setting": "MAP3K15 (human)", "value": 100, "unit": "%"},
      {"measurement": "kinase still bound, per cent of control", "setting": "[3]", "value": 73, "unit": "%"},
      {"measurement": "kinase still bound, per cent of control", "setting": "PKN2 (human)", "value": 94, "unit": "%"},
      {"measurement": "kinase still bound, per cent of control", "setting": "GSK3A (human)", "value": 100, "unit": "%"},
      {"measurement": "kinase still bound, per cent of control", "setting": "MAP4K1 (human)", "value": 86, "unit": "%"},
      {"measurement": "kinase still bound, per cent of control", "setting": "[4]", "value": 94, "unit": "%"},
      {"measurement": "kinase still bound, per cent of control", "setting": "CHEK1 (human)", "value": 100, "unit": "%"},
      {"measurement": "kinase still bound, per cent of control", "setting": "CASK (human)", "value": 62, "unit": "%"},
      {"measurement": "kinase still bound, per cent of control", "setting": "IRAK1 (human)", "value": 93, "unit": "%"},
      {"measurement": "kinase still bound, per cent of control", "setting": "RET (human)", "value": 88, "unit": "%"},
      {"measurement": "kinase still bound, per cent of control", "setting": "MARK2 (human)", "value": 81, "unit": "%"},
      {"measurement": "kinase still bound, per cent of control", "setting": "CDKL2 (human)", "value": 87, "unit": "%"},
      {"measurement": "kinase still bound, per cent of control", "setting": "FLT4 (human)", "value": 98, "unit": "%"},
      {"measurement": "kinase still bound, per cent of control", "setting": "[5]", "value": 84, "unit": "%"},
      {"measurement": "kinase still bound, per cent of control", "setting": "YES1 (human)", "value": 92, "unit": "%"},
      {"measurement": "kinase still bound, per cent of control", "setting": "ROCK2 (human)", "value": 94, "unit": "%"},
      {"measurement": "kinase still bound, per cent of control", "setting": "LYN (human)", "value": 97, "unit": "%"},
      {"measurement": "kinase still bound, per cent of control", "setting": "RIOK3 (human)", "value": 68, "unit": "%"},
      {"measurement": "kinase still bound, per cent of control", "setting": "MAPK1 (human)", "value": 100, "unit": "%"},
      {"measurement": "kinase still bound, per cent of control", "setting": "CSNK2A1 (human)", "value": 100, "unit": "%"},
      {"measurement": "kinase still bound, per cent of control", "setting": "STK38L (human)", "value": 92, "unit": "%"},
      {"measurement": "kinase still bound, per cent of control", "setting": "CLK3 (human)", "value": 79, "unit": "%"},
      {"measurement": "kinase still bound, per cent of control", "setting": "CAMK4 (human)", "value": 100, "unit": "%"},
      {"measurement": "kinase still bound, per cent of control", "setting": "CDK17 (human)", "value": 100, "unit": "%"},
      {"measurement": "kinase still bound, per cent of control", "setting": "PRKAA2 (human)", "value": 75, "unit": "%"},
      {"measurement": "kinase still bound, per cent of control", "setting": "CDK3 (human)", "value": 100, "unit": "%"},
      {"measurement": "kinase still bound, per cent of control", "setting": "CDK4 CCND1 (human)", "value": 98, "unit": "%"},
      {"measurement": "kinase still bound, per cent of control", "setting": "STK3 (human)", "value": 95, "unit": "%"},
      {"measurement": "kinase still bound, per cent of control", "setting": "IGF1R (human)", "value": 100, "unit": "%"},
      {"measurement": "kinase still bound, per cent of control", "setting": "PLK3 (human)", "value": 91, "unit": "%"},
      {"measurement": "kinase still bound, per cent of control", "setting": "ACVR1B (human)", "value": 91, "unit": "%"},
      {"measurement": "kinase still bound, per cent of control", "setting": "MAP2K3 (human)", "value": 97, "unit": "%"},
      {"measurement": "kinase still bound, per cent of control", "setting": "MAP2K1 (human)", "value": 100, "unit": "%"},
      {"measurement": "kinase still bound, per cent of control", "setting": "STK17B (human)", "value": 96, "unit": "%"},
      {"measurement": "kinase still bound, per cent of control", "setting": "PAK2 (human)", "value": 85, "unit": "%"},
      {"measurement": "kinase still bound, per cent of control", "setting": "ULK1 (human)", "value": 100, "unit": "%"}
    ]}
  ]
}
